According to the supplement of paper PMC11208160:

experiment: recombinant barcode read abundance after kanamycin selection (control-corrected) (log10(CPM+1)); higher = more efficient recombination; sequences stand for … in AGTGCAGAGAAAATCGGCCAGTTTTCTCTGCCTGCAGTCCGCATGCCGT…AGATTTATGCAGCGGACTGCCTTTCTCCCAAAGTGATAAACCGGACAGTATCATGGACCGGTTTTCCCGGTAATCCGTATTTGCAAGGTTGGTTTCACT; site = the 11-nt target
Summary of the method: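 Recombination efficiency draws on barcodes counted at recombinant junctions in a pooled E. coli screen of targets paired with IS621 bridge RNA target-binding loops. The counts were converted to counts per million, averaged and corrected against the chloramphenicol/ampicillin LB agar control, then reported as log10(CPM+1). Selection plates held chloramphenicol/ampicillin/kanamycin with 0.1 mM IPTG, with two replicates per condition.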
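Also: IS621 recombinase and bridge RNA in Escherichia coli cells.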

Sequence	recombinant barcode read abundance (log10)
CGTCTAGCTTGGGTTCTAACCTGTTGCCA (site CGTCTAGCTTG)	0.0938
CGTCTAGCTTGGGTTCTAACCTGTTGCCA (site CGTGGAGCTTG)	0.0343
CGTCTGCCTTGGGTTCTAACCTGTTGCCT (site AGTCTGCCTAG)	0.0222
CGTCTGCCTTGGGTTCTAACCTGTTGCCT (site CGTCTGCCTAG)	0.0327
CGTCTGCCTTGGGTTCTAACCTGTTGCCT (site GGTCTGCCTAG)	0.0804
CGTCTGCCTTGGGTTCTAACCTGTTGCCT (site TGTCTGCCTAG)	0.193
CGTGACCCTTGGGTTCTAACCTGTTGCGG (site CGTGACCCTCC)	2.34
CGTGACCCTTGGGTTCTAACCTGTTGCGG (site GTGAGAACTTG)	0.072
CGTGCAGCTTGGGTTCTAACCTGTTGCCT (site CGAGCAGCTAG)	0.508
CGTGCAGCTTGGGTTCTAACCTGTTGCCT (site CGCGCAGCTAG)	0.137
CGTGCAGCTTGGGTTCTAACCTGTTGCCT (site CGGGCAGCTAG)	0.0626
CGTGCAGCTTGGGTTCTAACCTGTTGCCT (site CGTGCAGCTAG)	0.323
CGTGCGCCTTGGGTTCTAACCTGTTGCCT (site AAACTAGCTCC)	0.0967
CGTGCGCCTTGGGTTCTAACCTGTTGCCT (site CGTGCGCCTAG)	0.174
CGTGGTCCTTGGGTTCTAACCTGTTGCGT (site CGTGGTCCTAA)	0.615
CGTGGTCCTTGGGTTCTAACCTGTTGCGT (site CGTGGTCCTAC)	2.26
CGTGGTCCTTGGGTTCTAACCTGTTGCGT (site CGTGGTCCTAG)	0.224
CGTGGTCCTTGGGTTCTAACCTGTTGCGT (site CGTGGTCCTAT)	1.25
CGTGGTCCTTGGGTTCTAACCTGTTGCTT (site CGTGGTCCTAA)	0.919
CGTGGTCCTTGGGTTCTAACCTGTTGCTT (site CGTGGTCCTAC)	0.409
CGTGGTCCTTGGGTTCTAACCTGTTGCTT (site CGTGGTCCTAG)	0.342
CGTGGTCCTTGGGTTCTAACCTGTTGCTT (site CGTGGTCCTAT)	0.426

Sequence	recombinant barcode read abundance (log10)
CGTTCCACTTGGGTTCTAACCTGTTGCCT (site CGTTCAACTAG)	0.0139
CGTTCCACTTGGGTTCTAACCTGTTGCCT (site CGTTCCACTAG)	0.0687
CGTTCCACTTGGGTTCTAACCTGTTGCCT (site CGTTCGACTAG)	0.279
CGTTCCACTTGGGTTCTAACCTGTTGCCT (site CGTTCTACTAG)	0
CTAAACCCTTGGGTTCTAACCTGTTGCGT (site CTAAACCCTAC)	2.85
CTAAACCCTTGGGTTCTAACCTGTTGCGT (site CTACACCCTTC)	0.0729
CTAAATCCTTGGGTTCTAACCTGTTGCCT (site ATAAATCCTAG)	0.111
CTAAATCCTTGGGTTCTAACCTGTTGCCT (site CTAAATCCTAG)	0.303
CTAAATCCTTGGGTTCTAACCTGTTGCCT (site GTAAATCCTAG)	0.0932
CTAAATCCTTGGGTTCTAACCTGTTGCCT (site TTAAATCCTAG)	0.0182
CTAACCGCTTGGGTTCTAACCTGTTGCCT (site CAAACCGCTAG)	0.471
CTAACCGCTTGGGTTCTAACCTGTTGCCT (site CCAACCGCTAG)	0.266
CTAACCGCTTGGGTTCTAACCTGTTGCCT (site CGAACCGCTAG)	0.0568
CTAACCGCTTGGGTTCTAACCTGTTGCCT (site CTAACCGCTAG)	1.67
CTAACCTCTTGGGTTCTAACCTGTTGCTT (site CTAACCTCTAA)	0.505
CTAACCTCTTGGGTTCTAACCTGTTGCTT (site CTAACCTCTCA)	0.149
CTAACCTCTTGGGTTCTAACCTGTTGCTT (site CTAACCTCTGA)	0.178
CTAACCTCTTGGGTTCTAACCTGTTGCTT (site CTAACCTCTTA)	0
CTAAGAACTTGGGTTCTAACCTGTTGCAT (site CTAAGAACTAA)	0.15
CTAAGAACTTGGGTTCTAACCTGTTGCAT (site CTAAGAACTAC)	0.0166
CTAAGAACTTGGGTTCTAACCTGTTGCAT (site CTAAGAACTAG)	0.188
CTAAGAACTTGGGTTCTAACCTGTTGCAT (site CTAAGAACTAT)	1.1

Sequence	recombinant barcode read abundance (log10)
CTAAGAGCTTGGGTTCTAACCTGTTGCCA (site CTAAGAGCTTG)	0.483
CTAAGAGCTTGGGTTCTAACCTGTTGCCA (site CTAAGCGCTTG)	0.109
CTAAGAGCTTGGGTTCTAACCTGTTGCCA (site CTAAGGGCTTG)	0.0357
CTAAGAGCTTGGGTTCTAACCTGTTGCCA (site CTAAGTGCTTG)	0.116
CTAAGCACTTGGGTTCTAACCTGTTGCCG (site CTAAATACTCG)	0.849
CTAAGCACTTGGGTTCTAACCTGTTGCCG (site CTAAGCACTCG)	0.671
CTAAGGACTTGGGTTCTAACCTGTTGCTT (site CTAAGGACTAA)	0.0753
CTAAGGACTTGGGTTCTAACCTGTTGCTT (site CTAAGGGCTCA)	0.124
CTAAGGGCTTGGGTTCTAACCTGTTGCCA (site CTAAGAGCTTG)	0.122
CTAAGGGCTTGGGTTCTAACCTGTTGCCA (site CTAAGCGCTTG)	0.0306
CTAAGGGCTTGGGTTCTAACCTGTTGCCA (site CTAAGGGCTTG)	0.591
CTAAGGGCTTGGGTTCTAACCTGTTGCCA (site CTAAGTGCTTG)	0.233
CTAAGGGCTTGGGTTCTAACCTGTTGCGG (site CTAAGGGCTCC)	1.94
CTAAGGGCTTGGGTTCTAACCTGTTGCGG (site CTTAGGGCTCC)	0.303
CTAAGTTCTTGGGTTCTAACCTGTTGCGT (site CTAAGTTCTAC)	1.77
CTAAGTTCTTGGGTTCTAACCTGTTGCGT (site CTACGTACTAC)	0.0986
CTAATAGCTTGGGTTCTAACCTGTTGCCT (site CTAATAGCTAG)	0.901
CTAATAGCTTGGGTTCTAACCTGTTGCCT (site CTAATGGCTAG)	0.0554
CTAATAGCTTGGGTTCTAACCTGTTGCTA (site CTAATAGCTTA)	0.162
CTAATAGCTTGGGTTCTAACCTGTTGCTA (site CTAATATCTTA)	0.438
CTAATATCTTGGGTTCTAACCTGTTGCTA (site CTAATAGCTTA)	0.0341
CTAATATCTTGGGTTCTAACCTGTTGCTA (site CTAATATCTTA)	0.512

Sequence	recombinant barcode read abundance (log10)
CTAATTGCTTGGGTTCTAACCTGTTGCCT (site CCAATTGCTAG)	0.201
CTAATTGCTTGGGTTCTAACCTGTTGCCT (site CTAATTGCTAG)	0.336
CTACAACCTTGGGTTCTAACCTGTTGCTT (site CTACAACCTAA)	1.28
CTACAACCTTGGGTTCTAACCTGTTGCTT (site CTACACCCTAA)	0.0399
CTACAACCTTGGGTTCTAACCTGTTGCTT (site CTACAGCCTAA)	0.109
CTACAACCTTGGGTTCTAACCTGTTGCTT (site CTACATCCTAA)	0
CTACCCTCTTGGGTTCTAACCTGTTGCCT (site CTACCCTCTAG)	2.4
CTACCCTCTTGGGTTCTAACCTGTTGCCT (site TCTAAGACTGC)	0.122
CTACGCACTTGGGTTCTAACCTGTTGCTG (site CTACGAACTCA)	0
CTACGCACTTGGGTTCTAACCTGTTGCTG (site CTACGCACTCA)	1.68
CTACGCACTTGGGTTCTAACCTGTTGCTG (site CTACGGACTCA)	0.112
CTACGCACTTGGGTTCTAACCTGTTGCTG (site CTACGTACTCA)	0.156
CTACGCTCTTGGGTTCTAACCTGTTGCAC (site CTACGATCTGT)	0.145
CTACGCTCTTGGGTTCTAACCTGTTGCAC (site CTACGCTCTGT)	1.78
CTACGCTCTTGGGTTCTAACCTGTTGCAC (site CTACGGTCTGT)	0.0577
CTACGCTCTTGGGTTCTAACCTGTTGCAC (site CTACGTTCTGT)	0.0706
CTACGTACTTGGGTTCTAACCTGTTGCGT (site CTAAGTTCTAC)	0.0986
CTACGTACTTGGGTTCTAACCTGTTGCGT (site CTACGTACTAC)	0.051
CTACGTCCTTGGGTTCTAACCTGTTGCTA (site CTACGTCCTAA)	0.0386
CTACGTCCTTGGGTTCTAACCTGTTGCTA (site CTACGTCCTCA)	0.0856
